Test results from the supplement of paper PMC10307832.

Assays:
Assay in all cases: relative viability (nuclei count vs DMSO), 5 days (fraction); higher = more cells survive
Olaparib + Pemetrexed = compound: O=C(c1cc(Cc2n[nH]c(=O)c3ccccc23)ccc1F)N1CCN(C(=O)C2CC2)CC1 [Olaparib] + Nc1nc2[nH]cc(CCc3ccc(C(=O)N[C@@H](CCC(=O)O)C(=O)O)cc3)c2c(=O)[nH]1 [Pemetrexed] (partner 0.2 µM)
Procedure, shortened: (§1)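 Five library-drug doses in √10 steps were combined with a fixed anchor-drug dose, or a single drug was given alone, by pin tool to lung cancer cell lines in 1536-well plates the day after seeding. Nuclei were stained and counted after 5 days. Relative viability is the nuclei count in treated wells over that in vehicle wells, taken as the median of duplicate plates.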

Carfilzomib + Pemetrexed = compound: CC(C)C[C@H](NC(=O)[C@H](CCc1ccccc1)NC(=O)CN1CCOCC1)C(=O)N[C@@H](Cc1ccccc1)C(=O)N[C@@H](CC(C)C)C(=O)[C@@]1(C)CO1 [Carfilzomib] + Nc1nc2[nH]cc(CCc3ccc(C(=O)N[C@@H](CCC(=O)O)C(=O)O)cc3)c2c(=O)[nH]1 [Pemetrexed] (partner 0.2 µM)
Procedure, shortened: as §1

Carfilzomib + Luminespib = compound: CC(C)C[C@H](NC(=O)[C@H](CCc1ccccc1)NC(=O)CN1CCOCC1)C(=O)N[C@@H](Cc1ccccc1)C(=O)N[C@@H](CC(C)C)C(=O)[C@@]1(C)CO1 [Carfilzomib] + CCNC(=O)c1noc(-c2cc(C(C)C)c(O)cc2O)c1-c1ccc(CN2CCOCC2)cc1 [Luminespib] (partner 0.01 µM)
Procedure, shortened: as §1

Carfilzomib + Alpelisib = compound: CC(C)C[C@H](NC(=O)[C@H](CCc1ccccc1)NC(=O)CN1CCOCC1)C(=O)N[C@@H](Cc1ccccc1)C(=O)N[C@@H](CC(C)C)C(=O)[C@@]1(C)CO1 [Carfilzomib] + Cc1nc(NC(=O)N2CCC[C@H]2C(N)=O)sc1-c1ccnc(C(C)(C)C(F)(F)F)c1 [Alpelisib] (partner 2 µM)
Procedure, shortened: as §1

| Cell Line | relative viability (Olaparib + Pemetrexed; first compound 0.08 µM) | relative viability (Olaparib + Pemetrexed; first compound 0.253 µM) | relative viability (Olaparib + Pemetrexed; first compound 2.53 µM) | relative viability (Olaparib + Pemetrexed; first compound 8 µM) | relative viability (Carfilzomib + Pemetrexed; first compound 0.001 µM) | relative viability (Carfilzomib + Pemetrexed; first compound 0.003162 µM) | relative viability (Carfilzomib + Pemetrexed; first compound 0.01 µM) | relative viability (Carfilzomib + Pemetrexed; first compound 0.03162 µM) | relative viability (Carfilzomib + Pemetrexed; first compound 0.1 µM) | relative viability (Carfilzomib + Luminespib; first compound 0.001 µM) | relative viability (Carfilzomib + Luminespib; first compound 0.003162 µM) | relative viability (Carfilzomib + Luminespib; first compound 0.01 µM) | relative viability (Carfilzomib + Luminespib; first compound 0.03162 µM) | relative viability (Carfilzomib + Luminespib; first compound 0.1 µM) | relative viability (Carfilzomib + Alpelisib; first compound 0.001 µM) | relative viability (Carfilzomib + Alpelisib; first compound 0.003162 µM) | relative viability (Carfilzomib + Alpelisib; first compound 0.01 µM) | relative viability (Carfilzomib + Alpelisib; first compound 0.03162 µM) | relative viability (Carfilzomib + Alpelisib; first compound 0.1 µM) |
| --- | --- | --- | --- | --- | --- | --- | --- | --- | --- | --- | --- | --- | --- | --- | --- | --- | --- | --- | --- |
| NCI-H358 | 0.159 | 0.172 | 0.176 | 0.152 | 0.169 | 0.164 | 0.173 | 0.136 | 0.102 | 0.295 | 0.456 | 0.378 | 0.281 | 0.118 | 1.21 | 1.19 | 0.85 | 0.153 | 0.13 |
| NCI-H441 | 0.28 | 0.279 | 0.287 | 0.239 | 0.26 | 0.257 | 0.244 | 0.134 | 0.133 | 0.303 | 0.308 | 0.318 | 0.208 | 0.173 | 0.946 | 0.842 | 0.2 | 0.102 | 0.15 |
| NCI-H460 | 0.055 | 0.0542 | 0.0654 | 0.0663 | 0.0648 | 0.0611 | 0.0649 | 0.0671 | 0.0245 | 0.0383 | 0.0252 | 0.0369 | 0.0311 | 0.0158 | 0.556 | 0.462 | 0.538 | 0.101 | 0.0126 |
| NCI-H520 | 0.866 | 0.646 | 0.604 | 0.458 | 0.664 | 0.712 | 0.568 | 0.169 | 0.131 | 0.231 | 0.227 | 0.18 | 0.22 | 0.247 | 1.11 | 0.951 | 0.574 | 0.138 | 0.137 |
| NCI-H596 | 0.592 | 0.496 | 0.493 | 0.543 | 0.486 | 0.519 | 0.421 | 0.329 | 0.244 | 1.16 | 1.05 | 1.14 | 0.354 | 0.195 | 0.467 | 0.566 | 0.464 | 0.276 | 0.194 |
| NCI-H647 | 0.193 | 0.156 | 0.138 | 0.15 | 0.193 | 0.179 | 0.126 | 0.0407 | 0.0343 | 0.203 | 0.143 | 0.2 | 0.0957 | 0.0461 | 1.14 | 1.19 | 0.71 | 0.025 | 0.0242 |
| NCI-H650 | 0.912 | 0.901 | 0.871 | 0.776 | 0.954 | 1.04 | 1.27 | 0.781 | 0.137 |  | 0.866 | 0.636 | 0.746 | 0.182 | 1.09 | 1.3 | 1.21 | 1.09 | 0.164 |
| NCI-H661 | 0.954 | 0.871 | 0.901 | 0.795 | 0.925 | 0.948 | 0.902 | 0.903 | 0.415 | 0.93 | 0.967 | 0.933 | 0.866 | 0.291 | 0.778 | 0.93 | 0.495 | 0.615 | 0.181 |
| NCI-H838 | 0.25 | 0.226 | 0.239 | 0.246 | 0.268 | 0.254 | 0.246 | 0.209 | 0.136 | 0.27 | 0.255 | 0.301 | 0.19 | 0.13 | 0.979 | 1.09 | 1.06 | 0.992 | 0.122 |
| NCI-H1355 | 1.04 | 1.01 | 1.05 | 1.08 | 1.01 | 1.03 | 1.08 | 1 | 0.282 | 0.723 | 0.791 | 0.731 | 0.606 | 0.238 | 0.753 | 0.767 | 0.737 | 0.584 | 0.139 |
| NCI-H1395 | 0.8 | 0.565 | 0.564 | 0.497 |  | 0.873 | 0.756 | 0.33 | 0.287 | 0.594 | 0.783 | 0.66 | 0.561 | 0.309 | 0.995 | 1.27 | 1.19 | 0.335 | 0.356 |
| NCI-H1437 | 0.345 | 0.3 | 0.32 | 0.325 | 0.282 | 0.352 | 0.334 | 0.273 | 0.286 | 1.08 | 1.24 | 1.11 | 0.94 | 0.249 | 0.982 | 1.01 | 0.943 | 0.54 | 0.101 |
| NCI-H1563 | 0.91 | 0.76 | 0.834 | 0.686 | 0.685 | 0.773 | 0.727 | 0.82 | 0.498 | 0.538 | 0.455 | 0.512 | 0.457 | 0.466 | 1.04 | 0.866 | 0.877 | 0.812 | 0.569 |
| NCI-H1651 | 0.624 | 0.586 | 0.553 | 0.334 | 0.561 | 0.649 | 0.536 | 0.197 | 0.082 | 0.766 | 0.913 | 0.916 | 0.2 | 0.12 | 0.927 | 0.881 | 0.725 | 0.0951 | 0.0668 |
| NCI-H1666 | 0.945 | 0.772 | 0.856 | 0.822 | 0.896 | 0.914 | 0.898 | 0.799 | 0.562 | 0.993 | 1.06 | 1.11 | 0.863 | 0.358 | 1.06 | 1.05 | 1.03 | 0.3 | 0.231 |
| NCI-H1734 | 0.417 | 0.398 | 0.387 | 0.362 | 0.398 | 0.436 | 0.432 | 0.366 | 0.19 | 0.188 | 0.177 | 0.235 | 0.184 | 0.107 | 0.695 | 0.832 | 0.69 | 0.367 | 0.165 |
